According to patent publication US20250332300A1 (priority 2024, published 2025):
Structures can show the parent of a compound that is named as a salt. Where two headings read alike, the source gives them in different places. Starred links: 1 amine or outer side, 2 acyl side, 3 side chain; linkers in the order of their positions; H or OH if unused. Positions of bridges follow the written chain, without caps; N, C: chain ends. Non-standard residues stand in square brackets, D forms with d. Residues, ends and D or L forms follow the SMILES beside them. Trp(5-OH) = N[C@@H](Cc1c[nH]c2ccc(O)cc12)C(=O)O; NMePhe(4-F) = CN[C@@H](Cc1ccc(F)cc1)C(=O)O; X1 = O=C([C@H](Cc1cnn2ccccc12)N[*:1])[*:2]; Lys(N3) = [N-]=[N+]=NCCCC[C@H](N)C(=O)O; NMehPhe = CN[C@@H](CCc1ccccc1)C(=O)O; X3 = NC[C@H](CCC(=O)[*:2])C(=O)[*:1]; NMeE = CN[C@@H](CCC(=O)O)C(=O)O; Aad = N[C@@H](CCCC(=O)O)C(=O)O; Gly(cPr) = N[C@H](C(=O)O)C1CC1; NMeDab = CN[C@@H](CCN)C(=O)O; NMeK = CN[C@@H](CCCCN)C(=O)O; NMeDap = CN[C@@H](CN)C(=O)O; NMeS = CN[C@@H](CO)C(=O)O; Dap = NC[C@H](N)C(=O)O

Experiments:
Type in all cases: binding
human HER2 (23-652) [1] = molecular target: T1, human HER2 (23-652) (Homo sapiens, UniProt P04626); experiment: TR-FRET competition assay for peptide potency, human HER2; parameters: towards human HER2 (23-652) and mouse HER2 (23-653); made in house; host or cells: mammalian cells
human HER2 (23-652) [2] = molecular target: T1, human HER2 (23-652); experiment: Surface plasmon resonance (SPR) for assessment of peptide affinity, human HER2; parameters: towards human HER2 (23-652) and mouse HER2 (23-653); made in house
How it was run: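 Binding kinetics fitted from sensorgrams with 280 s peptide association then 3000 s dissociation (30 uL/min), using HER2 (23-652) either directly immobilized (SA/CM5) or anti-Fc-captured; 3 M magnesium chloride used for regeneration.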

mouse HER2 (23-653) [3] = molecular target: T2, mouse HER2 (23-653) (Mus musculus, UniProt P70424); experiment: Surface plasmon resonance (SPR) for assessment of peptide affinity, mouse HER2; parameters: mouse HER2 (23-653) using a Cy5 labeled peptide as a probe; made in house
Description: Each protein was immobilized either onto a SA sensorchip (Cytiva, BR-1005-31) or CM5 sensorchip (Cytiva, BR-1005-30) to a density of 800-2000 RU.

mouse HER2 (23-653) [4] = molecular target: T2, mouse HER2 (23-653); experiment: TR-FRET competition assay for peptide potency, mouse HER2; parameters: mouse HER2 (23-653) using a Cy5 labeled peptide as a probe; made in house; host or cells: mammalian cells
[5] = SPR, human HER2 extracellular domain, 25° C., 1:1 binding model, read-out: huHER2-SPR-ONC KD
[6] = SPR, mouse HER2 extracellular domain, 25° C., 1:1 binding model, read-out: moHER2-SPR-ONC KD
[7] = TR-FRET competition with Cy5 labeled peptide probe, 0.1 nM mouse HER2, 24 h incubation, read-out: moHER2 TR-FRET IC50
[8] = huHER2 TR-FRET IC50, TR-FRET competition with Cy5 labeled peptide probe, 0.1 nM human HER2, 24 h incubation
[9] = value in parentheses (**): recalculated after further repetition, read-out: moHER2 TR-FRET IC50, recalculated value achieved after further repetition

Row | SMILES | IC50 (human HER2 (23-652) [1]; read-out: huHER2 TR-FRET IC50) | Kd (human HER2 (23-652) [2]; [5]) | Kd (mouse HER2 (23-653) [3]; [6]) | IC50 (mouse HER2 (23-653) [4]; [7]) | huHER2-SPR-ONC KD (human HER2 (23-652) [2]; SPR, human HER2 extracellular domain, 25° C., 1:1 binding model) | moHER2-SPR-ONC KD (mouse HER2 (23-653) [3]; SPR, mouse HER2 extracellular domain, 25° C., 1:1 binding model) | IC50 (human HER2 (23-652) [1]; [8]) | Kd (human HER2 (23-652) [2]) | IC50 (human HER2 (23-652) [1]; value in parentheses (**): recalculated after further repetition, read-out: huHER2 TR-FRET IC50, recalculated value achieved after further repetition) | IC50 (mouse HER2 (23-653) [4]; [9]) | Kd (mouse HER2 (23-653) [3]) | IC50 (mouse HER2 (23-653) [4]; moHER2 TR-FRET IC50, TR-FRET competition with Cy5 labeled peptide probe, 0.1 nM mouse HER2, 24 h incubation)
1 | CC(=O)N[C@H]1CC(=O)NCC[C@@H](C(=O)N(C)[C@@H](Cc2ccc(F)cc2)C(N)=O)N(C)C(=O)[C@H](C2CC2)NC(=O)[C@H](Cc2c[nH]c3ccccc23)NC(=O)[C@H](Cc2c[nH]c3ccc(O)cc23)NC(=O)[C@H](CO)N(C)C(=O)[C@H](CCc2ccccc2)N(C)C(=O)[C@H](CO)NC(=O)[C@H](Cc2ccc(O)cc2)NC1=O [Example A9, (2S,5S,8S,11S,14S,17S,20S,23S,29S)-17-((1H-indol-3-yl)methyl)-29-acetamido-N-((S)-1-amino-3-(4-fluorophenyl)-1-oxopropan-2-yl)-20-cyclopropyl-14-((5-hydroxy-1H-indol-3-yl)methyl)-2-(4-hydroxybenzyl)-5,11-bis(hydroxymethyl)-N,7,10,22-tetramethyl-3,6,9,12,15,18,21,27,30-nonaoxo-8-phenethyl-1,4,7,10,13,16,19,22,26-nonaazacyclotriacontane-23-carboxamide] (Ac-DYS[NMehPhe][NMeS][Trp(5-OH)]W[Gly(cPr)][NMeDab][NMePhe(4-F)]-NH2; lactam 1-9) | 75 nM | 117 nM | 243 nM | 172 nM |  |  |  |  |  |  |  | 
2 | CC(=O)N[C@H]1CNC(=O)CC[C@@H](C(=O)N(C)[C@@H](Cc2ccc(F)cc2)C(N)=O)N(C)C(=O)[C@H](C2CC2)NC(=O)[C@H](Cc2c[nH]c3ccccc23)NC(=O)[C@H](Cc2c[nH]c3ccc(O)cc23)NC(=O)[C@H](CO)N(C)C(=O)[C@H](CCc2ccccc2)N(C)C(=O)[C@H](CO)NC(=O)[C@H](Cc2ccc(O)cc2)NC1=O [Example A19, (3S,6S,9S,12S,15S,18S,21S,24S,30S)-6-((1H-indol-3-yl)methyl)-24-acetamido-N-((S)-1-amino-3-(4-fluorophenyl)-1-oxopropan-2-yl)-3-cyclopropyl-9-((5-hydroxy-1H-indol-3-yl)methyl)-21-(4-hydroxybenzyl)-12,18-bis(hydroxymethyl)-N,1,13,16-tetramethyl-2,5,8,11,14,17,20,23,27-nonaoxo-15-phenethyl-1,4,7,10,13,16,19,22,26-nonaazacyclotriacontane-30-carboxamide] (Ac-[Dap]YS[NMehPhe][NMeS][Trp(5-OH)]W[Gly(cPr)][NMeE][NMePhe(4-F)]-NH2; lactam 1-9) | > 1000 nM |  |  | > 1000 nM | no binding* | no binding* |  |  |  |  |  | 
3 | CC(=O)N[C@H]1CCC(=O)NCC[C@@H](C(=O)N(C)[C@@H](Cc2ccc(F)cc2)C(N)=O)N(C)C(=O)[C@H](C2CC2)NC(=O)[C@H](Cc2c[nH]c3ccccc23)NC(=O)[C@H](Cc2c[nH]c3ccc(O)cc23)NC(=O)[C@H](CO)N(C)C(=O)[C@H](CCc2ccccc2)N(C)C(=O)[C@H](CO)NC(=O)[C@H](Cc2ccc(O)cc2)NC1=O [Example A10, (2S,5S,8S,11S,14S,17S,20S,23S,30S)-17-((1H-indol-3-yl)methyl)-30-acetamido-N-((S)-1-amino-3-(4-fluorophenyl)-1-oxopropan-2-yl)-20-cyclopropyl-14-((5-hydroxy-1H-indol-3-yl)methyl)-2-(4-hydroxybenzyl)-5,11-bis(hydroxymethyl)-N,7,10,22-tetramethyl-3,6,9,12,15,18,21,27,31-nonaoxo-8-phenethyl-1,4,7,10,13,16,19,22,26-nonaazacyclohentriacontane-23-carboxamide] | 536 nM | 482 nM | 520 nM | 684 nM |  |  |  |  |  |  |  | 
4 | CC(=O)N[C@H]1CCC(=O)NC[C@@H](C(=O)N(C)[C@@H](Cc2ccc(F)cc2)C(N)=O)N(C)C(=O)[C@H](C2CC2)NC(=O)[C@H](Cc2cnn3ccccc23)NC(=O)[C@H](Cc2c[nH]c3ccc(O)cc23)NC(=O)[C@H](CO)N(C)C(=O)[C@H](CCc2ccccc2)N(C)C(=O)[C@H](CO)NC(=O)[C@H](Cc2ccc(O)cc2)NC1=O [Example A21, (3S,6S,9S,12S,15S,18S,21S,24S,27S)-27-acetamido-N-((S)-1-amino-3-(4-fluorophenyl)-1-oxopropan-2-yl)-6-cyclopropyl-12-((5-hydroxy-1H-indol-3-yl)methyl)-24-(4-hydroxybenzyl)-15,21-bis(hydroxymethyl)-N,4,16,19-tetramethyl-5,8,11,14,17,20,23,26,30-nonaoxo-18-phenethyl-9-(pyrazolo[1,5-a]pyridin-3-ylmethyl)-1,4,7,10,13,16,19,22,25-nonaazacyclotriacontane-3-carboxamide] (Ac-EYS[NMehPhe][NMeS][Trp(5-OH)][X1][Gly(cPr)][NMeDap][NMePhe(4-F)]-NH2; lactam 1-9) | > 1000 nM | > 6000 nM | > 6000 nM | > 1000 nM |  |  |  |  |  |  |  | 
5 | CC(=O)NCCCC[C@H]1C(=O)N[C@@H](Cc2c[nH]c3ccc(O)cc23)C(=O)N[C@@H](Cc2c[nH]c3ccccc23)C(=O)N[C@@H](C2CC2)C(=O)N(C)[C@H](C(=O)N(C)[C@@H](Cc2ccc(F)cc2)C(=O)N[C@@H](CCCCN)C(N)=O)CNC(=O)CCC[C@H](NC(C)=O)C(=O)N[C@@H](Cc2ccc(O)cc2)C(=O)N[C@@H](CO)C(=O)N(C)[C@@H](CCc2ccccc2)C(=O)N1C [Example A40, TFA salt] |  |  | < 0.1 nM | 0.2 nM |  |  | < 0.1 nM | < 0.1 nM |  |  |  | 
6 | CC(=O)NCCCC[C@H]1C(=O)N[C@@H](Cc2c[nH]c3ccc(O)cc23)C(=O)N[C@@H](Cc2c[nH]c3ccccc23)C(=O)N[C@@H]([C@H](C)O)C(=O)N(C)[C@H](C(=O)N(C)[C@@H](Cc2ccc(F)cc2)C(=O)N[C@@H](CCCCNC(=O)CN2CCN(CC(=O)O)CCN(CC(=O)O)CCN(CC(=O)O)CC2)C(N)=O)CNC(=O)CC[C@H](NC(C)=O)C(=O)N[C@@H](Cc2ccc(O)cc2)C(=O)N[C@@H](CO)C(=O)N(C)[C@@H](CCc2ccccc2)C(=O)N1C [Example C25] |  | 0.6 nM | 2 nM | 6.1 nM |  |  |  |  | 0.9 nM | 3.7 nM |  | 
7 | CN1C(=O)[C@H](CO)NC(=O)[C@H](Cc2ccc(O)cc2)NC(=O)[C@H](CN)CCC(=O)NC[C@@H](C(=O)N(C)[C@@H](Cc2ccc(F)cc2)C(N)=O)N(C)C(=O)[C@H](C2CC2)NC(=O)[C@H](Cc2c[nH]c3ccccc23)NC(=O)[C@H](Cc2c[nH]c3ccc(O)cc23)NC(=O)[C@H](CO)N(C)C(=O)[C@@H]1CCc1ccccc1 [Example A39, (3S,6S,9S,12S,15S,18S,21S,24S,27S)-9-((1H-indol-3-yl)methyl)-N-((S)-1-amino-3-(4-fluorophenyl)-1-oxopropan-2-yl)-27-(aminomethyl)-6-cyclopropyl-12-((5-hydroxy-1H-indol-3-yl)methyl)-24-(4-hydroxybenzyl)-15,21-bis(hydroxymethyl)-N,4,16,19-tetramethyl-5,8,11,14,17,20,23,26,30-nonaoxo-18-phenethyl-1,4,7,10,13,16,19,22,25-nonaazacyclotriacontane-3-carboxamide TFA salt] (YS[NMehPhe][NMeS][Trp(5-OH)]W[Gly(cPr)][NMeDap][NMePhe(4-F)]-NH2; linker N-8 via X3) |  |  |  |  |  |  | 129 nM | 148 nM |  |  | 162 nM | 436 nM
8 | CC(=O)NCCCC[C@H]1C(=O)N[C@@H](Cc2c[nH]c3ccc(O)cc23)C(=O)N[C@@H](Cc2c[nH]c3ccccc23)C(=O)N[C@@H](C2CC2)C(=O)N(C)[C@H](C(=O)N(C)[C@@H](Cc2ccc(F)cc2)C(=O)N[C@@H](CCCCN=[N+]=[N-])C(N)=O)CNC(=O)CCC[C@H](NC(C)=O)C(=O)N[C@@H](Cc2ccc(O)cc2)C(=O)N[C@@H](CO)C(=O)N(C)[C@@H](CCc2ccccc2)C(=O)N1C [Example A74] (Ac-[Aad]YS[NMehPhe][NMeK](Ac)[Trp(5-OH)]W[Gly(cPr)][NMeDap][NMePhe(4-F)][Lys(N3)]-NH2; lactam 1-9) | 0.1 nM | 0.1 nM | 0.1 nM | 0.5 nM |  |  |  |  |  | 0.3 nM |  | 
